Data on six compounds can be found in BindingDB's records for doi:10.1007/s00213-002-1073-7 (WestfÄLische Wilhelms-Universit&Auml, 2002).

The target in assay [1] is Kappa-type opioid receptor (Homo sapiens, UniProt P41145).
In assay [2] the target is 5-hydroxytryptamine receptor 7 (Homo sapiens, UniProt P34969).
Assay [3] has as its target D(2) dopamine receptor (Rattus norvegicus, UniProt P61169).
In assay [4] the target is D(3) dopamine receptor (Rattus norvegicus, UniProt P19020).
The target of assay [5] is D(1A) dopamine receptor (Homo sapiens, UniProt P21728).
Sequence of D(1A) dopamine receptor (P21728 whole entry): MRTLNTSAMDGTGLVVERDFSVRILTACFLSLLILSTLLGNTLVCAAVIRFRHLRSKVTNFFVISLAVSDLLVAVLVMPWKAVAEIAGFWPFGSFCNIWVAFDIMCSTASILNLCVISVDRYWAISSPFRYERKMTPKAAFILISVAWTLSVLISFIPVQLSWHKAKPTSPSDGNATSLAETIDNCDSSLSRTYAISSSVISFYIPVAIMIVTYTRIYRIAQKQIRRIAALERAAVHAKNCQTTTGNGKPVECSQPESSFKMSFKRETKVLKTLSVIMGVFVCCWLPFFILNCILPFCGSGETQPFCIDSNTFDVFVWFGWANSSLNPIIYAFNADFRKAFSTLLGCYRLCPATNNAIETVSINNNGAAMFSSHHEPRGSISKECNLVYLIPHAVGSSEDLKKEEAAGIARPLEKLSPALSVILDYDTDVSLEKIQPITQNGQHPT
Assay [6] concerns the target 5-hydroxytryptamine receptor 5A (Homo sapiens, UniProt P47898).
Assay [7] addresses T1, Alpha-2B adrenergic receptor (Homo sapiens, UniProt P18089).
T1 sequence (P18089 whole entry): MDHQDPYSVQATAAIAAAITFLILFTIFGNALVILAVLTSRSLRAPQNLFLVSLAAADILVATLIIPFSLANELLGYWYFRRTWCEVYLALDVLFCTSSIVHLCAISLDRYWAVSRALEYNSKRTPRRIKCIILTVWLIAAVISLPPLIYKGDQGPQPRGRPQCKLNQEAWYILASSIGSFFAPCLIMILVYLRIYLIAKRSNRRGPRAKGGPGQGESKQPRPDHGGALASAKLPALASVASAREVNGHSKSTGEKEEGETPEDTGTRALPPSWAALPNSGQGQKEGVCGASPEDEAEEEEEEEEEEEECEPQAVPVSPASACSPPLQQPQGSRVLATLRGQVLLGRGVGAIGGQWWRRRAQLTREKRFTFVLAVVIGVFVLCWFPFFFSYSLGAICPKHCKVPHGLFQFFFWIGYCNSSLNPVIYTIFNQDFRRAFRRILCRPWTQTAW

Assay [8] deals with T2, Vasopressin V1b receptor (Homo sapiens, UniProt P47901).
T2 sequence (P47901 whole entry): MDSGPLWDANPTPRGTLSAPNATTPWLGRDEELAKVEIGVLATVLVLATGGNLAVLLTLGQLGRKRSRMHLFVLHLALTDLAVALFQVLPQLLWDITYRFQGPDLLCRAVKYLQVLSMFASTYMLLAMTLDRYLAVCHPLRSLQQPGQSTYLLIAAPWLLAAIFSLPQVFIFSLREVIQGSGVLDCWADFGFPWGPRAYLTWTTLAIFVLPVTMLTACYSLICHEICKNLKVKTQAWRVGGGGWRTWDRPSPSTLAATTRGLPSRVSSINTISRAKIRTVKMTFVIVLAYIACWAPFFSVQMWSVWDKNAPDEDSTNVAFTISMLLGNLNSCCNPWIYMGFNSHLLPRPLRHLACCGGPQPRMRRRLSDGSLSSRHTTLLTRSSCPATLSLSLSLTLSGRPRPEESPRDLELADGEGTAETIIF

Assay [9] has as its target T3, Muscarinic acetylcholine receptor M4 (Homo sapiens, UniProt P08173).
T3 sequence (P08173 whole entry): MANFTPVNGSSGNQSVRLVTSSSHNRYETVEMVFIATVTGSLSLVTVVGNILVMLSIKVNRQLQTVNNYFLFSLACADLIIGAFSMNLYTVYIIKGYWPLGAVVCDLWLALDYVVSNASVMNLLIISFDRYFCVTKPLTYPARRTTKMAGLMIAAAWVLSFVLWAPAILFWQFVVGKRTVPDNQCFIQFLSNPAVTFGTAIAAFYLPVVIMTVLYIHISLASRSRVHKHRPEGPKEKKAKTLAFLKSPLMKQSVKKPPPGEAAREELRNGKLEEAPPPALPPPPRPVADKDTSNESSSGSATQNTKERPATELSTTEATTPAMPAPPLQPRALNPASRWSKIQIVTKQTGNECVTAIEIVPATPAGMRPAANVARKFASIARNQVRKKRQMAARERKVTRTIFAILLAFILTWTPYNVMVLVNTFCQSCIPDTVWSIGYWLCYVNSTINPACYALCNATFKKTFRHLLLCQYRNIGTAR

Assay [10] deals with T4, D(4) dopamine receptor (Rattus norvegicus, UniProt P30729).
T4 sequence (P30729 whole entry): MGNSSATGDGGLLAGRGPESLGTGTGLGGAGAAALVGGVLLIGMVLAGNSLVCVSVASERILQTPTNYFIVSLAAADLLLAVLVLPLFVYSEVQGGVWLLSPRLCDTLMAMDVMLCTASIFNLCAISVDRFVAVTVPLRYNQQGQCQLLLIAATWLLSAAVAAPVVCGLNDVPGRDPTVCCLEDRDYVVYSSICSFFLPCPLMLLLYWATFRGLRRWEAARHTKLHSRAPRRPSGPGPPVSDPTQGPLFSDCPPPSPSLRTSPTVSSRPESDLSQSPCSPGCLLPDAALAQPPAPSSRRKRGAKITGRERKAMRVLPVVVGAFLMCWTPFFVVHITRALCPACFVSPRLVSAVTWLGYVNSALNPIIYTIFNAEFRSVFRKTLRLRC

Assay [11] addresses T5, Muscarinic acetylcholine receptor M5 (Homo sapiens, UniProt P08912).
T5 sequence (P08912 whole entry): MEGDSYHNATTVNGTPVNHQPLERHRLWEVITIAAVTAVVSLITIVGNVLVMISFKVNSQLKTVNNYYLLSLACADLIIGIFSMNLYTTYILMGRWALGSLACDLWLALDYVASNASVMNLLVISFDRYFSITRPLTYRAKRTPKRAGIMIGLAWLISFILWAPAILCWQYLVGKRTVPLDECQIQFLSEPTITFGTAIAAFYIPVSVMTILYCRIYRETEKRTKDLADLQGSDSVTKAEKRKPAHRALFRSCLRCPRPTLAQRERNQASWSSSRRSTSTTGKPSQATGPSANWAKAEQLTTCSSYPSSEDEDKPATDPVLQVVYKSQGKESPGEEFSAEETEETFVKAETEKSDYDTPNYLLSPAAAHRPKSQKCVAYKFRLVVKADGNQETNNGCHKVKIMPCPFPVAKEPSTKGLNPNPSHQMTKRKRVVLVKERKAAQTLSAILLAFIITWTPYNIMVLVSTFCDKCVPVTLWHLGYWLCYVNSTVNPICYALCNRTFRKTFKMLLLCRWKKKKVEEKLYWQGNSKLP

Assay [12] addresses Beta-2 adrenergic receptor (Rattus norvegicus, UniProt P10608).

Sequence of D(2) dopamine receptor (P61169 whole entry): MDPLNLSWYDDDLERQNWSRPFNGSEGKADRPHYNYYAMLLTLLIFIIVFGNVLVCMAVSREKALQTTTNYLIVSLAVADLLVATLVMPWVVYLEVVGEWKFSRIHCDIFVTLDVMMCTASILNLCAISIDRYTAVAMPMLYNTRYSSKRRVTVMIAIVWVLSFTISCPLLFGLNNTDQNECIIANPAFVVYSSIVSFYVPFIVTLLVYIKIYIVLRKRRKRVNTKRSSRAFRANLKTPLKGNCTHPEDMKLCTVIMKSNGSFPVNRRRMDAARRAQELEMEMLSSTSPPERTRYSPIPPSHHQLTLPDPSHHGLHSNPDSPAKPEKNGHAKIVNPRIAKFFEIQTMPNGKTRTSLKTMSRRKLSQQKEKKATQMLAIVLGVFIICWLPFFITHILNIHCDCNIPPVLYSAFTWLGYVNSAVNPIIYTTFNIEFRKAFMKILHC
Sequence of 5-hydroxytryptamine receptor 7 (P34969 whole entry): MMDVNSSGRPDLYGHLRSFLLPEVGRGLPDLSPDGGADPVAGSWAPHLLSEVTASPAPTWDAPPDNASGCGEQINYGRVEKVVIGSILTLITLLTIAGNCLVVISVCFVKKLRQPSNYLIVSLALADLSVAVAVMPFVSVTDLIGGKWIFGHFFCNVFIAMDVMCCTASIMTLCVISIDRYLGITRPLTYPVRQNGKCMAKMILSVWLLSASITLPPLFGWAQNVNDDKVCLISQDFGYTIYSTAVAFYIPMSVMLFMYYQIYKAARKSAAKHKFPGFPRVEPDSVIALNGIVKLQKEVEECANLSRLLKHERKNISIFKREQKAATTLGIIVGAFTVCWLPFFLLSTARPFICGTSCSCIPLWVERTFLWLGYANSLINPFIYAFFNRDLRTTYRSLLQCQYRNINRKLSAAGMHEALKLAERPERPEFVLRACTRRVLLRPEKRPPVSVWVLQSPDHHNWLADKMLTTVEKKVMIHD
Sequence of 5-hydroxytryptamine receptor 5A (P47898 whole entry): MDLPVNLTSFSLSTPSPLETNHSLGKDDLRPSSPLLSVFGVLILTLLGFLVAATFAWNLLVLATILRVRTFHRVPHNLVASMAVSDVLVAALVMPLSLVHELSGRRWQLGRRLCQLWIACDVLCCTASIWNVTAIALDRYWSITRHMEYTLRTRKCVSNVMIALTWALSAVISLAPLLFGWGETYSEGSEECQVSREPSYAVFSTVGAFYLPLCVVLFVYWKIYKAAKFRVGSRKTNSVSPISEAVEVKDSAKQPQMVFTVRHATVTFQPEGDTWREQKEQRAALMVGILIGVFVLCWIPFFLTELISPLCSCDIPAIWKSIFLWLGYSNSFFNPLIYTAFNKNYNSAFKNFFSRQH
Sequence of Beta-2 adrenergic receptor (P10608 whole entry): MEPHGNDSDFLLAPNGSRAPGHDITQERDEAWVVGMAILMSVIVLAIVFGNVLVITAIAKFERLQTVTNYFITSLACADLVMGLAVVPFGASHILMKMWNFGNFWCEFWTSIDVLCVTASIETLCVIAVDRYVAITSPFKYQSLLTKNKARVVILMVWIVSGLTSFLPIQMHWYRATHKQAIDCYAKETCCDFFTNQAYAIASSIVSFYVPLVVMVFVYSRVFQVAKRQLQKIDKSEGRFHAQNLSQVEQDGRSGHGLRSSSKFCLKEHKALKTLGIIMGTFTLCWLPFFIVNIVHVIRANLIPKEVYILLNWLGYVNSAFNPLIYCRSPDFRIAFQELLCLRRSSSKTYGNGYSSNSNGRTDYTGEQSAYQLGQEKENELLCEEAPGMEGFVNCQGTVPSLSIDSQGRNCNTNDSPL
Sequence of Kappa-type opioid receptor (P41145 whole entry): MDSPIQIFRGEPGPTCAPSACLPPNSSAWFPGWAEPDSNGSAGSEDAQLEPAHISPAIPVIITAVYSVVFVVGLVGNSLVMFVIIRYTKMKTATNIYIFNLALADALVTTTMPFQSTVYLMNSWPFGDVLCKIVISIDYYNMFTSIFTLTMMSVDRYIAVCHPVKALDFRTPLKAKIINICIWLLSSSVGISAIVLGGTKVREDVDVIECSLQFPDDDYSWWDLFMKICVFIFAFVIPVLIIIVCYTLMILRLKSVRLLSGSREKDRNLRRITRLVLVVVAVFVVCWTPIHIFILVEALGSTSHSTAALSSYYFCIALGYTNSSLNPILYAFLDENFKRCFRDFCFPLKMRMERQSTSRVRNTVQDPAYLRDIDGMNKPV
Sequence of D(3) dopamine receptor (P19020 whole entry): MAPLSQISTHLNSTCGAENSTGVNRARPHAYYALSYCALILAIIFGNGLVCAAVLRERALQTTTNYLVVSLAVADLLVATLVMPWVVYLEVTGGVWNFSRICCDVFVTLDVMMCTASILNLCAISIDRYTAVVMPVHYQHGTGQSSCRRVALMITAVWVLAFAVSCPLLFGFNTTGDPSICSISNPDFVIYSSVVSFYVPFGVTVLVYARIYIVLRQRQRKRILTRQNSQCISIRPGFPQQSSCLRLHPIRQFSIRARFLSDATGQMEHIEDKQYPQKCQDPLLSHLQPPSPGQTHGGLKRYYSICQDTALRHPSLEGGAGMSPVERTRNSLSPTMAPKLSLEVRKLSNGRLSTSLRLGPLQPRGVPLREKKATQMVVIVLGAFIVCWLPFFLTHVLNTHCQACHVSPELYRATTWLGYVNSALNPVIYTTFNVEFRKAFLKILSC

The term Ki denotes the equilibrium dissociation constant of an inhibitor or competing ligand from its target. Read a high Ki as lower affinity. As for `O=c1c(O)c(-c2ccc(O)c(O)c2)oc2cc(O)cc(O)c12` [2-(3,4-dihydroxyphenyl)-3,5,7-trihydroxy-chromone;hydrate], the inhibitory constant (Ki) in assay [1], in [2], in [3], in assay [4], in [5] and in assay [6] was over 10 µM in each case. For the same compound, the inhibition constant (Ki) is over 10 µM in assay [7]; over 10 µM in assay [8]; over 10 µM in assay [9]; 7.85 µM in [10]; over 10 µM in [11]; over 10 µM in assay [12].
As to `O=c1cc(O)cc2oc(-c3ccc(O)c(-c4c(O)cc(O)c5c(=O)cc(-c6ccc(O)cc6)oc45)c3)cc(O)c1-2`, the inhibition constant (Ki) is over 10 µM in assay [1]; over 10 µM in assay [2]; over 10 µM in assay [3]; 1.24 µM in [4]; over 10 µM in assay [5]; over 10 µM in [6]. Also, the inhibition constant Ki in assay [7], in assay [8], in [9], in assay [10], in assay [11] and in assay [12] was over 10 µM each time.
Take `C[C@@H]1O[C@@H](Oc2c(-c3ccc(O)c(O)c3)oc3cc(O)cc(=O)c-3c2O)[C@H](O)[C@H](O)[C@H]1O`: the inhibition constant Ki in [1], in assay [2], in assay [3], in [4], in [5] and in assay [6] was over 10 µM in each case. Moreover, the inhibition constant Ki in [7], in assay [8], in assay [9], in [10], in assay [11] and in assay [12] was over 10 µM in each case.
For the compound `O=c1cc(O)cc2oc(-c3ccc(O)c(O)c3)c(OC3OC(CO)C(O)C(O)C3O)c(O)c1-2` (configuration not stated) [NSC_5318390], the Ki in assay [1], in assay [2], in [3], in assay [4], in [5] and in [6] was over 10 µM each time. In addition, the inhibition constant (Ki) in [7], in [8], in assay [9], in assay [10], in [11] and in assay [12] was over 10 µM in each case.
For `C[C@@H]1O[C@@H](OC[C@H]2O[C@@H](Oc3c(-c4ccc(O)c(O)c4)oc4cc(O)cc(O)c4c3=O)[C@H](O)[C@@H](O)[C@@H]2O)[C@H](O)[C@H](O)[C@H]1O` [3-Rhamnoglucosylquercetin], the Ki in assay [1], in assay [2], in [3], in assay [4], in [5] and in assay [6] was over 10 µM in each case. The Ki in [7] was over 10 µM; in [8] it was over 10 µM; in assay [9], over 10 µM; in [10], over 10 µM; in assay [11], 0.0351 µM; in assay [12], over 10 µM.
With `CC(C)=CCC[C@]1(C)[C@@H](CC=C(C)C)C[C@]2(CC=C(C)C)C(=O)C(CC=C(C)C)C(=O)[C@]1(C(=O)C(C)C)C2=O` (some centres not stated), the Ki in assay [1] is over 10 µM; in assay [2] it was over 10 µM; in [3], over 10 µM; in [4], over 10 µM; in assay [5] it was 0.596 µM; in assay [6], over 10 µM. Further, the Ki in assay [7], in assay [8], in assay [9], in assay [10], in [11] and in [12] was over 10 µM throughout.
